Test results as given in patent publication US20250340848A1, “METHODS FOR CHEMICAL REPROGRAMMING AND PLURIPOTENT STEM CELLS” (Peking University, priority 2022, published 2025).

System: hADSCs
Assay: Three-stage conversion of hADSCs into hCiPSCs (methods of EXAMPLE 1), numbers of hCiPSC colonies
Format: cell-based, human
Excerpt: FIG. 1 illustrates a schematic of an exemplary method for converting human somatic cells into pluripotent stem cells. The method has 3 stages. During any of the 3 stages, any cell can proliferate and give rise to progeny cells. In stage 1, a first population of cells comprising somatic cells are contacted with a first composition for about 4-12 days. The first population of cells can comprise somatic cells (e.g., fibroblasts or primary human adult adipose derived mesenchymal stromal cells (hADSCs)). During and/or subsequent to contacting the first composition, at least a subset of the cells of the first population of cells or the progenies thereof are converted into a second population of cells. The second population of cells can comprise epithelial-like cells. In stage 2, the second population of cells or the progenies thereof are then contacted with a second composition for about 4-16 days. During and/or subsequent to contacting the second composition, at least a subset of the cells of the second population of cells or the progenies thereof are converted into a third population of cells. The third population of cells can comprise intermediate plastic state cells. In stage 3, the third population of cells or the progenies thereof are contacted with a third composition for about 6-12 days. During and/or subsequent to contacting the third composition, at least a subset of the cells of the third population of cells or the progenies thereof are converted into a fourth population of cells.
FIG. 2 illustrates a schematic of an exemplary method for converting human fibroblasts into pluripotent stem cells. The method can comprise 3 stages. During any of the 3 stages, any cell can proliferate and give rise to progeny cells. In stage 1, a first population of cells comprising fibroblasts is contacted with a first composition for about 8-10 days. During and/or subsequent to contacting the first composition, at least a subset of the cells of the first population of cells or the progenies thereof are converted into a second population of cells. The second population of cells can comprise epithelial-like cells. The epithelial-like cells express an increased amount of LIN28A, relative to the first population of cells or their progenies. In stage 2, the second population of cells or the progenies thereof are then contacted with a second composition for about 12-16 days. During and/or subsequent to contacting the second composition, at least a subset of the cells of the second population of cells or the progenies thereof are converted into a third population of cells. The third population of cells can comprise intermediate plastic state cells. The intermediate plastic state cells express both SALL4 and LIN28A. In stage 3, the third population of cells or the progenies thereof are contacted with a third composition for about 8-10 days. During and/or subsequent to contacting the third composition, at least a subset of the cells of the third population of cells or the progenies thereof are converted into a fourth population of cells. […] The second conversion medium can then be removed from the cells. […] The third stage 3 medium may allow the pluripotent stem cells or the progenies thereof to proliferate.
In one experiment, when converting hCiPSCs from somatic cell (e.g., hADSCs), hypoxia with 5% O2 was used in stage 1 conversion. After stage 1 conversion, cells were incubated with 21% O2. The induction medium was changed every 3-4 days. hADSCs were seeded at a density of 1×10^4 cells per well of a 12-well plate in 15% FBS-DMEM medium and would be changed into stage 1 conversion medium the next day. For stage 1 conversion, single layer epithelial-like cells induced from hADSCs would emerge at day 4-6 and approach 100% confluence at day 8-12. Then the medium was changed into stage 2 conversion medium. […]

[1] = factor removed from the stage 2 conversion medium, FIG. 17
[2] = various combinations supplemented to stage 1 conversion medium comprising CHIR99021, 616452, TTNPB and AKT Kinase Inhibitor, FIG. 5
[3] = factor removed from the stage 1 conversion medium, FIG. 4
[4] = factor removed from the stage 3 conversion medium, FIG. 19

Cc1cc(NC(=O)c2cccc(NC(=O)/C=C/CN(C)C)c2)ccc1Nc1nccc(-c2cccnc2)n1 [JNKIN8, 3-[[(E)-4-(dimethylamino)but-2-enoyl]amino]-N-[3-methyl-4-[(4-pyridin-3-ylpyrimidin-2-yl)amino]phenyl]benzamide]
numbers of converted hCiPSCs [1]: minimal numbers of converted hCiPSCs

CNC1CCC(N(Cc2cccc(-c3ccncc3)c2)C(=O)c2sc3ccccc3c2Cl)CC1.Cl (stereo not drawn) [SAG, 3-chloro-N-[4-(methylamino)cyclohexyl]-N-[(3-pyridin-4-ylphenyl)methyl]-1-benzothiophene-2-carboxamide;hydrochloride]
numbers of converted hCiPSCs [2]: significantly increase the numbers of converted hCiPSCs

O=C(O)c1ccc2c(c1)nc(Nc1cccc(Cl)c1)c1ccncc12 [CX-4945, 5-(3-chloroanilino)benzo[c][2,6]naphthyridine-8-carboxylic acid]
reprogramming efficiency (AKTi and CX4945 included in the stage 2 conversion medium (Base), FIG. 18): significantly improved the reprogramming efficiency

Cc1cnc(-c2cnc(NCCNc3ccc(C#N)cn3)nc2-c2ccc(Cl)cc2Cl)[nH]1 [CHIR99021, 6-[[2-[[4-(2,4-Dichlorophenyl)-5-(5-methyl-1H-imidazol-2-yl)-2-pyrimidinyl]amino]ethyl]amino]-3-pyridinecarbonitrile]
numbers of converted hCiPSCs [3]: minimal numbers of converted hCiPSCs
numbers of converted hCiPSCs [1]: minimal numbers of converted hCiPSCs

COc1ccc(CCc2nc3cc(-c4c(C)noc4C)ccc3n2C[C@H](C)N2CCOCC2)cc1Cl [SGC-CBP30, 2-[2-(3-chloro-4-methoxyphenyl)ethyl]-5-(3,5-dimethyl-4-isoxazolyl)-1-[(2S)-2-(4-morpholinyl)propyl]-1H-benzimidazole]
numbers of converted hCiPSCs [1]: minimal numbers of converted hCiPSCs

O=C(NOC[C@H](O)CO)c1ccc(F)c(F)c1Nc1ccc(I)cc1F [PD0325901]
numbers of converted hCiPSCs [4]: minimal numbers of converted hCiPSCs

Nc1ncnc2c1c(I)cn2[C@@H]1O[C@H](CO)[C@@H](O)[C@H]1O [5-ITU, (2R,3R,4S,5R)-2-(4-amino-5-iodopyrrolo[2,3-d]pyrimidin-7-yl)-5-(hydroxymethyl)oxolane-3,4-diol]
increase of the numbers of converted hCiPSCs (added to the stage 2 conversion medium, relative to medium without it, FIGS. 7A-7B): more than 5 fold
numbers of converted hCiPSCs [1]: minimal numbers of converted hCiPSCs

N#CC[C@H](C1CCCC1)n1cc(-c2ncnc3[nH]ccc23)cn1 [Ruxolitinib, (3R)-3-cyclopentyl-3-[4-(7H-pyrrolo[2,3-d]pyrimidin-4-yl)pyrazol-1-yl]propanenitrile]
numbers of converted hCiPSCs [2]: significantly increase the numbers of converted hCiPSCs

Cc1cccc(-c2n[nH]cc2-c2ccc3ncccc3n2)n1 [compound 616452, 2-(3-(6-Methylpyridin-2-yl)-1H-pyrazol-4-yl)-1,5-naphthyridine]
numbers of converted hCiPSCs [3]: minimal numbers of converted hCiPSCs
numbers of converted hCiPSCs [1]: minimal numbers of converted hCiPSCs

C/C(=C\c1ccc(C(=O)O)cc1)c1ccc2c(c1)C(C)(C)CCC2(C)C [TTNPB, 4-[(E)-2-(5,6,7,8-Tetrahydro-5,5,8,8-tetramethyl-2-naphthalenyl)-1-propenyl]benzoic acid]
numbers of converted hCiPSCs [3]: minimal numbers of converted hCiPSCs
numbers of converted hCiPSCs [1]: minimal numbers of converted hCiPSCs

Nc1nccc2c1ncn2[C@@H]1C=C(CO)[C@@H](O)[C@H]1O [DZNep, (1S,2R,5R)-5-(4-Amino-1H-imidazo[4,5-c]pyridin-1-yl)-3-(hydroxymethyl)-3-cyclopentene-1,2-diol]
numbers of converted hCiPSCs [1]: minimal numbers of converted hCiPSCs
numbers of converted hCiPSCs [2]: significantly increase the numbers of converted hCiPSCs

CCCC(CCC)C(=O)O [VPA, valproic acid]
numbers of converted hCiPSCs [4]: minimal numbers of converted hCiPSCs

CC(=O)N1CCN([C@H]2CCC[C@@H](NC(=O)c3cc4c(F)ccc(C)c4[nH]3)C2)CC1.O=C(O)C(F)(F)F [SETD2-IN-1, N-[(1R,3S)-3-(4-acetylpiperazin-1-yl)cyclohexyl]-4-fluoro-7-methyl-1H-indole-2-carboxamide;2,2,2-trifluoroacetic acid]
numbers of converted hCiPSCs (supplemented to the stage 1 conversion medium, FIG. 6): significantly increased the numbers of converted hCiPSCs

CN(C)CCOc1ccc(-c2nc(-c3ccc4c(c3)CCC4=NO)c(-c3ccncc3)[nH]2)cc1 [SB590885, 5-[2-[4-[2-(Dimethylamino)ethoxy]phenyl]-5-(4-pyridinyl)-1H-imidazol-4-yl]-2,3-dihydro-1H-inden-1-one oxime]
numbers of converted hCiPSCs [4]: minimal numbers of converted hCiPSCs

CC(C)N(C[C@H]1O[C@@H](n2cnc3c(N)ncnc32)[C@H](O)[C@@H]1O)[C@H]1C[C@@H](CCc2nc3cc(C(C)(C)C)ccc3[nH]2)C1 [EPZ5676, (2R,3R,4S,5R)-2-(6-amino-9H-purin-9-yl)-5-((((1r,3S)-3-(2-(5-(tert-butyl)-1H-benzo[d]imidazol-2-yl)ethyl)cyclobutyl)(isopropyl)amino)methyl)tetrahydrofuran-3,4-diol]
numbers of converted hCiPSCs [1]: reduced the numbers of converted hCiPSCs
numbers of converted hCiPSCs [2]: significantly increase the numbers of converted hCiPSCs
